ChEMBL document CHEMBL3714766, “Tetrahydroisoquinoline compounds and their use as pyruvate dehydrogenase kinase inhibitors” (2015)

Target: Pyruvate dehydrogenase kinase (Homo sapiens, UniProt Q15119+Q15120+Q16654+Q15118)
Test: Binding affinity to pyruvate dehydrogenase kinase (unknown origin) by VER-00160364 probe based fluorescence polarization assay

SMILES	IC50 [nM]
Cc1cnc(-c2ccc3c(c2)CCC(C)N3C(=O)c2cc(Cl)c(O)cc2O)n1C (centres undefined)	1000
O=C(c1ccc(O)cc1O)N1CCCc2cc(-c3ncccc3C(F)(F)F)ccc21	1000
N#Cc1cccnc1-c1ccc2c(c1)CCCN2C(=O)c1ccc(O)cc1O	1000
C[C@H]1CCc2cc(-c3nc(Cl)nc4c3COCC4)ccc2N1C(=O)c1ccc(O)cc1O	100
CC1CCc2cc(-c3ncccc3C(F)(F)F)ccc2N1C(=O)c1ccc(O)cc1O (centres undefined)	100
C[C@H]1CCc2cc(C(=O)N(C)Cc3ccc4c(ccn4C)c3)ccc2N1C(=O)c1ccc(O)cc1O	100
Cc1nc(C)c(-c2ccc3c(c2)CC[C@H](C)N3C(=O)c2ccc(O)cc2O)s1	1000
O=C(c1ccc(O)cc1O)N1CCCc2cc(-c3ncccc3Cl)ccc21	1000
Cc1nc(C)c(-c2ccc3c(c2)CCCN3C(=O)c2ccc(O)cc2O)s1	100
CC1CCc2cc(-c3occc3C#N)ccc2N1C(=O)c1ccc(O)cc1O (centres undefined)	1000
Cn1nccc1-c1ccc2c(c1)CCCN2C(=O)c1ccc(O)cc1O	100
Cn1ccnc1-c1ccc2c(c1)CCCN2C(=O)c1ccc(O)cc1O	1000
CC1CCc2cc(-c3nccn3C)ccc2N1C(=O)c1cc(Cl)c(O)cc1O (centres undefined)	1000
CC1CCc2cc(-c3ncccc3C(F)(F)F)ccc2N1C(=O)c1cc(Cl)c(O)cc1O (centres undefined)	1000
Cc1nc(C)c(-c2ccc3c(c2)CCC(C)N3C(=O)c2ccc(O)cc2O)s1 (centres undefined)	10
Cc1cccnc1-c1ccc2c(c1)CCCN2C(=O)c1ccc(O)cc1O	1000
Cc1cn(C)c(-c2ccc3c(c2)CCC(C)N3C(=O)c2cc(Cl)c(O)cc2O)n1 (centres undefined)	1000
Cc1cccnc1-c1ccc2c(c1)CCCN2C(=O)c1cc(C(F)(F)F)c(O)cc1O	10000
C[C@H]1CCc2cc(C(=O)N3CCN(C(=O)OC(C)(C)C)CC3)ccc2N1C(=O)c1ccc(O)cc1O	1000
CC1CCc2cc(-c3ncccc3Cl)ccc2N1C(=O)c1cc(Cl)c(O)cc1O (centres undefined)	1000
Cc1nc(C)c(-c2ccc3c(c2)CCC(C)N3C(=O)c2cc(Cl)c(O)cc2O)s1 (centres undefined)	1000
Cc1cccnc1-c1ccc2c(c1)CCC(C)N2C(=O)c1cc(Cl)c(O)cc1O (centres undefined)	100
CC1CCc2cc(-c3ncccc3C#N)ccc2N1C(=O)c1cc(Cl)c(O)cc1O (centres undefined)	1000

Other lines, results leading:

IC50 [nM]	SMILES
100	CC1CCc2cc(-c3ncccc3C#N)ccc2N1C(=O)c1ccc(O)cc1O (centres undefined)
10	Cc1cnc(Cl)nc1-c1ccc2c(c1)CCC(C)N2C(=O)c1ccc(O)cc1O (centres undefined)
100	CC1CCc2cc(-c3ccnn3C)ccc2N1C(=O)c1ccc(O)cc1O (centres undefined)
100	CC1CCc2cc(-c3ncccc3Cl)ccc2N1C(=O)c1ccc(O)cc1O (centres undefined)
100	CC1CCc2cc(-c3nccn3C)ccc2N1C(=O)c1ccc(O)cc1O (centres undefined)
100	Cc1nccnc1-c1ccc2c(c1)CCC(C)N2C(=O)c1ccc(O)cc1O (centres undefined)
100	Cc1ccnnc1-c1ccc2c(c1)CCC(C)N2C(=O)c1ccc(O)cc1O (centres undefined)
10000	Cc1cccnc1-c1ccc2c(c1)CC[C@@H](C)N2C(=O)c1ccc(O)cc1O
100	C[C@H]1CCc2cc(-c3ncccc3Cl)ccc2N1C(=O)c1ccc(O)cc1O
100	Cc1cccnc1-c1ccc2c(c1)CC[C@H](C)N2C(=O)c1ccc(O)cc1O
100	Cc1ccnnc1-c1ccc2c(c1)CC[C@H](C)N2C(=O)c1ccc(O)cc1O
100	Cc1cccnc1-c1ccc2c(c1)CCC(C)N2C(=O)c1ccc(O)cc1O (centres undefined)
100	C[C@H]1CCc2cc(-c3ncccc3C(F)(F)F)ccc2N1C(=O)c1ccc(O)cc1O
10000	Cc1cnc(Cl)nc1-c1ccc2c(c1)CC[C@@H](C)N2C(=O)c1ccc(O)cc1O
100	C[C@H]1CCc2cc(-c3ncccc3C#N)ccc2N1C(=O)c1ccc(O)cc1O
100	Cc1cnc(NC(C)C)nc1-c1ccc2c(c1)CC[C@H](C)N2C(=O)c1ccc(O)cc1O
